The subject of data set [1] is PC-12. The experiment in a line: Cytoprotective activity against H2O2-induced cell death in […] assessed as cell viability at 30 to 100 uM incubated for 0.5 hrs followed by H2O2 stimulation and measured after 2 hrs by MTT assay. Type of data set: functional, cell-based. As to conditions: dose 30-100 µM, time 2.5 hrs.
Data set [2] relates to PC-12. The experiment in a line: Cytoprotective activity against H2O2-induced cell death in […] assessed as cell viability at 0.1 uM incubated for 0.5 hrs followed by H2O2 stimulation and measured after 2 hrs by MTT assay. The following applies: time 2.5 hrs. The class given is functional, cell-based.
A short description of data set [3]: Cytoprotective activity against H2O2-induced cell death in […] assessed as cell viability at 30 uM incubated for 0.5 hrs followed by H2O2 stimulation and measured after 2 hrs by MTT assay relative to control. Type of data set: functional. The following applies: Rattus norvegicus, time 2.5 hrs, read-out: Activity. Background: Tetrazolium assays rely on reduction of a dye to a coloured formazan, in cell work by metabolically active cells.

Data set [4] can be described thus: Stability of compound in PBS buffer at pH 7.4 incubated for 48 hrs by UV-vis spectrophotometry. Type of data set: physicochemical. As to conditions: pH 7.4, 48 h.
The subject of the next data set is HCT-116. Put plainly: Antiproliferative activity against human HCT-116 cells assessed as cell viability at 10 uM incubated for 48 hrs by MTT assay (reference value: 100 %). The class given is functional. The following applies: read-out: Activity.
The subject of the next data set is HepG2. The experiment in a line: Antiproliferative activity against human HepG2 cells assessed as cell viability at 10 uM incubated for 48 hrs by MTT assay (reference value: 100 %). The class given is functional. The following applies: read-out: Activity.
A further data set relates to K562. The experiment in a line: Antiproliferative activity against human K562 cells assessed as cell viability at 10 uM incubated for 48 hrs by MTT assay (reference value: 100 %). The following applies: read-out: Activity. Type of data set: functional.
In data set [5] the test system is PC-12. Put plainly: Cytoprotective activity against H2O2-induced cell death in […] assessed as cell viability at 100 uM incubated for 0.5 hrs followed by H2O2 stimulation and measured after 2 hrs by MTT assay. Type of data set: functional, cell-based. The following applies: Rattus norvegicus, time 2.5 hrs.
The test system of data set [6] is PC-12. Put plainly: Cytoprotective activity against H2O2-induced cell death in […] assessed as cell viability at 10 uM incubated for 0.5 hrs followed by H2O2 stimulation and measured after 2 hrs by MTT assay. The class given is functional, cell-based. As to conditions: time 2.5 hrs.

Our source for the Activity, viability and Stabilty values is ChEMBL document CHEMBL4706574, “Preparation, characterization, antioxidant evaluation of new curcumin derivatives and effects of forming HSA-bound nanoparticles on the stability and activity” (Eur J Med Chem, 2020).

Calls of active or inactive are those of the source. The calls are words filed in the database; no cut-off is given here.

As to `C=CCc1cc(/C=C/C(=O)/C=C(O)/C=C/c2cc(CC=C)c(O)c(OC)c2)cc(OC)c1O`, the outcome in the data set on PC-12 [1] (Rattus norvegicus) and with PC-12 [2] was Active. Further, in data set [3], the viability at 30 µM amounted to 100%.
For `COc1cc(/C=C/c2cc(/C=C/c3cc(CC=C(C)C)c(O)c(OC)c3)n[nH]2)ccc1O`, in the data set with PC-12 [1] (Rattus norvegicus), the outcome was Active.
Regarding `COc1cc(/C=C/C(=O)CC(=O)/C=C/c2ccc(O)c(OC)c2)ccc1O` [CURCUMIN], the result in the data set with PC-12 [1] (Rattus norvegicus) was Active. For the same molecule, in data set [4], the Stabilty result was “Unstable”. The results for the viability at 10 µM in the data set with HCT-116, in the data set on HepG2 and in the data set with K562 were 10.3%, 58.8% and 65.4%, respectively.
Take `C=CCc1cc(/C=C/c2cc(/C=C/c3cc(CC=C(C)C)c(O)c(OC)c3)n[nH]2)cc(OC)c1O`: in the data set with PC-12 [1] (Rattus norvegicus), the result was Active.
Take `COc1cc(/C=C/C(O)=C/C(=O)/C=C/c2cc(CC=C(C)C)c(O)c(OC)c2)ccc1O`: the result with PC-12 [1] (Rattus norvegicus) was Active. Further, the outcome in the data set with PC-12 [5] was inactive. Also, the viability at 30 µM in [3] turned out to be 100%.
As to `C=CCc1cc(/C=C/c2cc(/C=C/c3cc(CC=C)c(O)c(OC)c3)[nH]n2)cc(OC)c1O`, the result in the data set with PC-12 [1] (Rattus norvegicus) was Active.
On to `COc1cc(/C=C/C(=O)/C=C(O)/C=C/c2cc(CC=C(C)C)c(O)c(OC)c2)cc(CC=C(C)C)c1O`, for which the result with PC-12 [1] (Rattus norvegicus), in the data set on PC-12 [2] and in the data set with PC-12 [5] was Active. Also, the Stabilty entry in data set [4] was “Unstable”. Besides, the viability at 10 µM worked out at 61.1% with HCT-116, 64.3% in the data set with HepG2 and 64.3% in the data set on K562. Moreover, in data set [3], the viability at 30 µM worked out at 100%.
For `C=CCc1cc(/C=C/C(O)=C/C(=O)/C=C/c2cc(CC=C(C)C)c(O)c(OC)c2)cc(OC)c1O`, the outcome in the data set with PC-12 [1] (Rattus norvegicus) and with PC-12 [2] was Active. For the same molecule, the viability at 30 µM in data set [3] stood at 100%.
Turning to `C=CCc1cc(/C=C/C(=O)/C=C(O)/C=C/c2ccc(O)c(OC)c2)cc(OC)c1O`, the result in the data set with PC-12 [1] (Rattus norvegicus) was Active. In addition, the result with PC-12 [5] was inactive. The viability at 30 µM in [3] came to 100%.
Turning to `COc1cc(/C=C/c2cc(/C=C/c3cc(CC=C(C)C)c(O)c(OC)c3)[nH]n2)cc(CC=C(C)C)c1O`, the outcome in the data set on PC-12 [1] (Rattus norvegicus) was Active. For the same molecule, the result in the data set on PC-12 [5] was inactive. In addition, the viability at 30 µM in [3] is 100%.
`C=CCc1cc(/C=C/c2cc(/C=C/c3ccc(O)c(OC)c3)[nH]n2)cc(OC)c1O`: in the data set with PC-12 [1] (Rattus norvegicus), the result was Active.
Turning to `O=C(O)c1cc(O)c(O)c(O)c1`, the outcome in the data set on PC-12 [6] was inactive. Also, the outcome in the data set on PC-12 [1] was Active.
Consider `Oc1ccc(/C=C/c2cc(O)cc(O)c2)cc1`, for which the outcome in the data set on PC-12 [6] was inactive. The outcome in the data set on PC-12 [1] (Rattus norvegicus) was Active.
